“And” between values parts separate entries of the source, which are not always exact repeats. Equal values may be shown once.
Tests used:
Format in all cases: cell-based
320 non-olfactory GPCRs [1] = target: T1, 320 non-olfactory GPCRs (Homo sapiens, UniProt P25929); details: receptor NPY1R; replicate values, Fig_4g
T1 construct: expressed in transfected cells; host or cells: HTLA cells

320 non-olfactory GPCRs [2] = target: T2, 320 non-olfactory GPCRs (Homo sapiens, UniProt Q16602)
T2 construct: expressed in transfected cells; host or cells: HTLA cells
T2 sequence (Q16602 23-461): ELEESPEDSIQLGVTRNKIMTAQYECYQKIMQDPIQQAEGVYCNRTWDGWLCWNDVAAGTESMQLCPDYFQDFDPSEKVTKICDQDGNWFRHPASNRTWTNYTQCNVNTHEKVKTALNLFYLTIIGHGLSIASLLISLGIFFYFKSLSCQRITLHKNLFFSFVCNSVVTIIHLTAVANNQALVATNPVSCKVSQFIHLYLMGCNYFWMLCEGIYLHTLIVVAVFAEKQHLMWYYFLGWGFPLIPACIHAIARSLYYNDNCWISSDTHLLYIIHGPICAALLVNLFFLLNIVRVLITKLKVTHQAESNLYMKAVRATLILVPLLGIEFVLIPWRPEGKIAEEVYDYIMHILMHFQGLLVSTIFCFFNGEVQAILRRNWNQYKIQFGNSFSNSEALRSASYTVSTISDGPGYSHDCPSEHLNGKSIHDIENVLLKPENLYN

320 non-olfactory GPCRs [3] = target: T3, 320 non-olfactory GPCRs (Homo sapiens, UniProt Q86SQ6)
T3 construct: expressed in transfected cells; host or cells: HTLA cells
T3 sequence (Q86SQ6 whole entry): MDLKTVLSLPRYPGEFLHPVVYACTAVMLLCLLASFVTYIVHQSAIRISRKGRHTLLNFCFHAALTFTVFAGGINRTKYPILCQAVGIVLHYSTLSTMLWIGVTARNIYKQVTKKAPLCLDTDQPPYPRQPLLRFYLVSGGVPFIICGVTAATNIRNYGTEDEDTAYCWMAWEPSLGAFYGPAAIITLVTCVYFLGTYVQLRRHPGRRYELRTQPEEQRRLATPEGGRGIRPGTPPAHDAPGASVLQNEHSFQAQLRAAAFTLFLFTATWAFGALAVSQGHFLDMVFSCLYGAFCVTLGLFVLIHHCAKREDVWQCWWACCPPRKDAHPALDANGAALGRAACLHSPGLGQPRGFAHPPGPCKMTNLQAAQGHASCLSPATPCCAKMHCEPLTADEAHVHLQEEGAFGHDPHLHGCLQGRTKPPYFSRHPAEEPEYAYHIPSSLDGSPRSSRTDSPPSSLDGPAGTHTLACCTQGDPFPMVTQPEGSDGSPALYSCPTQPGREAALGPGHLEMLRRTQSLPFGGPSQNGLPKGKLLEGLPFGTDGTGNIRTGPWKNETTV

320 non-olfactory GPCRs [4] = target: T4, 320 non-olfactory GPCRs (Homo sapiens, UniProt Q99527)
T4 construct: expressed in transfected cells; host or cells: HTLA cells
T4 sequence (Q99527 whole entry): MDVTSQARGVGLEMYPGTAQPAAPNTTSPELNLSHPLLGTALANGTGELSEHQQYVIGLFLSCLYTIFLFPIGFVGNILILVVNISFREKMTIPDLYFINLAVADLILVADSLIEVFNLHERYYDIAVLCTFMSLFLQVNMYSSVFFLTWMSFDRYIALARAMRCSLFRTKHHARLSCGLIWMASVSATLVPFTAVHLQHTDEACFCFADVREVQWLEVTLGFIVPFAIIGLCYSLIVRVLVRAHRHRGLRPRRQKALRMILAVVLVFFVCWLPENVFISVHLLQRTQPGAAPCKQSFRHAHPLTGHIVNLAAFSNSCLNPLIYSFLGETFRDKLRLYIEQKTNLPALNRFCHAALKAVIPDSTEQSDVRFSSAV
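For Fold of Basal in this document: compound tested at 1 µM final concentration.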
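For GPCRome agonism screen response in this document: fold over basal response of each receptor without drug.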

T1 sequence (P25929 whole entry): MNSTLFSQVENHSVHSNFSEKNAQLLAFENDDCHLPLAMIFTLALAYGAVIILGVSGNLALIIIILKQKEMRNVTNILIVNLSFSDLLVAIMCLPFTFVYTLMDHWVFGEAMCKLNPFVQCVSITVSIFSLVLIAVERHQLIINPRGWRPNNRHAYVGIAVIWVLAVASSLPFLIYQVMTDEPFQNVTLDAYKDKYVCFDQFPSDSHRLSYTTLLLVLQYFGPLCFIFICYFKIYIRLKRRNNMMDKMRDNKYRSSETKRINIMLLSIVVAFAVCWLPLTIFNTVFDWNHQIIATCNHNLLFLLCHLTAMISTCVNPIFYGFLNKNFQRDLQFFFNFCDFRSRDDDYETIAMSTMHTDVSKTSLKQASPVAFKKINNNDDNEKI

Compound: CCOc1cccc2cc(C(C)NCC3(O)CCCCC3)oc12 (stereo not shown) [O4LE6]
- GPCRome agonism screen response (320 non-olfactory GPCRs [1]): 0.9657 and 1.278 and 0.9923 and 0.817
- Fold of Basal (320 non-olfactory GPCRs [2]): 0.7801 and 0.8303 and 0.6573 and 0.7619
- Fold of Basal (320 non-olfactory GPCRs [3]): 0.9894 and 1.559 and 1.433 and 1.372
- Fold of Basal (320 non-olfactory GPCRs [4]): 0.9251 and 0.8387 and 0.6915 and 0.7823

From paper PMC7044277 (Nature Communications, 2020)
